# Results taken from paper PMC6941823, “A dispensable paralog of succinate dehydrogenase subunit C mediates standing resistance towards a subclass of SDHI fungicides in Zymoseptoria tritici” (PLoS Pathogens, 2019).
# Legend:
# [1] = molecular target: SQR (SDHC / altC) of IPO323 pTet::SDHC3 transformant, repressed (Zymoseptoria tritici, UniProt A0A1X7RQW2+F9X9V6+F9XH52+O42772); assay: Succinate-quinone (SQR) SDHI sensitivity assay on purified mitochondria, IPO323 pTet::SDHC3 repressed; format: biochemical
# SQR (SDHC / altC) of IPO323 pTet::SDHC3 transformant, repressed, sequence (F9XH52 44-187): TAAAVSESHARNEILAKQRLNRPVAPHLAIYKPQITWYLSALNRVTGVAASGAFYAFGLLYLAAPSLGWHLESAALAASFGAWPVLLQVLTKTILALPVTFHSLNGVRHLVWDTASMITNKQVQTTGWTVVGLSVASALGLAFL
# SQR (SDHC / altC) of IPO323 pTet::SDHC3 transformant, repressed, sequence (O42772 20-297): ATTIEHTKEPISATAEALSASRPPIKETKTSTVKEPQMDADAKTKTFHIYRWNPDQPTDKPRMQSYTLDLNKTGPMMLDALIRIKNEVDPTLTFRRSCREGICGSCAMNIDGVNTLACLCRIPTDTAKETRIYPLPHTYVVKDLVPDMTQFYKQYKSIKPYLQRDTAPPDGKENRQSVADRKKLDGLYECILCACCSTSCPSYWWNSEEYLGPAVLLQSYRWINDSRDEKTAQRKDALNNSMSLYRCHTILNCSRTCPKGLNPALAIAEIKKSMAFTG
# SQR (SDHC / altC) of IPO323 pTet::SDHC3 transformant, repressed, sequence (F9X9V6 1-193): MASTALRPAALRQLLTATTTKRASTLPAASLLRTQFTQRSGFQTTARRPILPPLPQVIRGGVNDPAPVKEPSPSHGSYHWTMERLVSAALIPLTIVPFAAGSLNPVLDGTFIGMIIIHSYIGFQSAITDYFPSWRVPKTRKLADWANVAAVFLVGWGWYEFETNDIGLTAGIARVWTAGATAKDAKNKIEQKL
# SQR (SDHC / altC) of IPO323 pTet::SDHC3 transformant, repressed, sequence (A0A1X7RQW2 36-181): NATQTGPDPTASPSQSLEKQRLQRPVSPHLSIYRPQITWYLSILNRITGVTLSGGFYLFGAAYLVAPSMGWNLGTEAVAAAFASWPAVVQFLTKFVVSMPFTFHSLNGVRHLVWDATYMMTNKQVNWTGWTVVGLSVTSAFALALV
# SQR (SDHC / altC) of IPO323 pTet::SDHC3 transformant, repressed, sequence (F9WWR1 41-643 partner): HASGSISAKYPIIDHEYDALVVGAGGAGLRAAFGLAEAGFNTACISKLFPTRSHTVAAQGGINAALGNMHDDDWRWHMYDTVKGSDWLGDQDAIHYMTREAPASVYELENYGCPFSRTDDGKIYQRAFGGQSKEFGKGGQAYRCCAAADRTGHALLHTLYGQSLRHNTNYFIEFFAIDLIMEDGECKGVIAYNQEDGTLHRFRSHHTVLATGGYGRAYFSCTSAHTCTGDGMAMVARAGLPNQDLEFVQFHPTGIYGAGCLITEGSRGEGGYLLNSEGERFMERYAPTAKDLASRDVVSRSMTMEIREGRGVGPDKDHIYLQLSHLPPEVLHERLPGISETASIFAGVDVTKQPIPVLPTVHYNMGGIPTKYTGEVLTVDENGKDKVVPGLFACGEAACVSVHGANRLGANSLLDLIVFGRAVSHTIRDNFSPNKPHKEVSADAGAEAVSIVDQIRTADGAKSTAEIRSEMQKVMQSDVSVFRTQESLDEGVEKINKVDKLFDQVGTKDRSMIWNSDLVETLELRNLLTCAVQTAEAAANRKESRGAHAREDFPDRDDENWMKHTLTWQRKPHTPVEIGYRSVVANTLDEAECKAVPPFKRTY
# Outline: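 Succinate:ubiquinone/DCPIP reductase inhibition measured on purified mitochondria from Zymoseptoria tritici strains carrying either a single C-subunit gene (ZtSDHC1, ZtSDHC1_A84I or ZtSDHC3) or both ZtSDHC1 and ZtSDHC3; pTet::SDHC3 transformant tested under repressed and induced conditions.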
# [2] = test system: Zymoseptoria tritici on wheat variety Riband; assay: In planta fungicide dose response; format: in vivo; conditions: for In planta EC50: application one day before infection
# Procedure: The influence of the ZtSDHC3-driven SHA-SDHI resistance for the control of Z. tritici during wheat infection was assessed with a small range of commercial SDHIs (Fig 4C and 4D). In planta SDHIs sensitivity assays were performed with the 06STD024 isolate and its ZtSDHC1 or ZtSDHC3 KO mutants. A control strain (705) devoid of the ZtSDHC3 gene but more aggressive than IPO323 on wheat variety Riband was also included for comparison (Fig 4C and 4D).
# Wheat (Triticum aestivum) variety Riband was grown in pots (d = 6.5cm), at a density of 4 plants per pot and treated with the growth regulator CCC (Chlorcholinchlorid; Chlormequat; 5 ml / pot, 0.4% solution) 4 days after sowing. Wheat plantlets were maintained in a climatic room at 18°C, 60% humidity and under a 12h light regime (high intensity). Fungicide applications were performed on 14 days old plantlets for which leaf 2 is the fully expanded target leaf. Fungicide treatments were performed using a custom-made track sprayer adjusted at 200L.ha^-1 (Nozzle: Lechler, orange LU90-01). […] Z. tritici infections were performed using a Devilbis airbrush (spray of about 150ml.m^-2) one day after fungicide application and using an inoculum grown on V8-agar adjusted to 1.8.10^6 spores.ml^-1 in 0.05% Tween20 in MQ water. Inoculated plants were initially incubated for 72h under reduced light conditions and high humidity using towel-covered Plexiglas hoods in a climatic chamber set to 21°C/19°C day/night alternations, 80% humidity and a 14h light regime. The Plexiglas hoods were then removed until evaluation. Plants were fertilized once per week and disease evaluation performed based on disease coverage on the second leaf approximately 16–19 days after infection, once untreated plants reached 75–90% disease coverage. Each fungicide was tested at several rates to produce dose responses. There were 3 pots (4 plants each) per fungicide rate and isolate, the whole experiment was repeated 4 times. In planta EC50 were calculated using the software GraphPad Prism v6.08.
compound,measurement,setting,value
CON(C(=O)c1cn(C)nc1C(F)F)[C@@H](C)Cc1c(Cl)cc(Cl)cc1Cl [Pydiflumetofen],"RF (resistance factor), pTet Repressed (SDHC / altC)",[1]; IC50 ratio compared to IPO323 values,1.7
same,IC50,"[1]; IPO323 pTet::SDHC3 transformant grown in presence of 30 mg.L^-1 doxycycline, mean of three ± SD",0.5 ± 0.1 nM
same,In planta EC50,[2]; 06STD024 ZtSDHC1 KO on wheat Riband,2.85 g.ha^-1
same,In planta EC50,[2]; 06STD024 ZtSDHC3 KO mutant on wheat Riband,0.053 g.ha^-1
same,In planta EC50,[2]; WT isolate 06STD024 on wheat Riband,1.31 g.ha^-1
same,In planta sensitivity difference compared to the ZtSDHC3 KO mutant,[2]; WT isolate 06STD024 vs 06STD024 ZtSDHC3 KO,25 fold
